Values joined by “and” are separate entries in the source; they are usually repeats but may differ in a detail not shown here. Equal entries are not always repeated. “Also recorded” adds a separate entry of the source. Where two headings read alike, the source gives them in different places.
Assay: Plasma kinetics in rat following intravenous and oral administration;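 as to AUC0-∞: parameter is AUC from zero to infinity in ng·h/mL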
Format: in vivo, Sprague Dawley rats
Conditions: for t1/2: Table XIV; for concentration at 0.05 h / concentration at 0.1 h / concentration at 0.25 h / concentration at 0.75 h / concentration at 1.5 h / concentration at 2.5 h / concentration at 4 h / concentration at 6 h / concentration at 8 h / concentration at 24 h: single intravenous 10 mg/kg
Experimental: This study determined the intravenous pharmacokinetics and oral bioavailability of compound 1 of the invention (see FIG. 1A, structure no. 1), compound 2 of the invention (see FIG. 1D, structure no. 19) and compound 3 of the invention (see FIG. 1I, structure no. 53) following administration to Sprague Dawley rats at a dose level of 10 mg/kg.
Six groups of 3 male rats received either a single intravenous or single oral administration of compound 1, 2 or 3 of the invention at a dose level of 10 mg/kg. Blood samples were obtained at various times after dosing. Plasma samples were analysed for unchanged test item using a suitable LC-MS/MS method. Pharmacokinetic parameters were estimated from individual plasma concentrations.
Eighteen male rats each received either a single intravenous or a single oral administration of either compound 1, 2 or 3 at a dose level of 10 mg/kg. The formulation was orally administered to each animal by gastric gavage and intravenously administered to each animal via a tail vein. The dose was administered at a dose volume of 5 mL/kg. The formulations were administered to each animal according to the details in the following table:
Blood samples (ca 0.3 mL) were removed from the femoral vein of each animal into tubes containing lithium heparin as anticoagulant.
Blood samples were collected from 3 rats at the following times after dose administration: • 3, 6, 15, 45 min and 1.5, 2.5, 4, 6, 8, 24 h post dose. Oral Administration
Blood samples were collected from 3 rats at the following times after dose administration: • 5, 15, 45 min and 1.5, 2.5, 4, 6, 8, 24 h post dose. Processing of Blood Samples
Pharmacokinetic parameters of compound 1, 2 and 3 were derived by non-compartmental analysis using WinNonLin Pro version 5.0.1 (Pharsight 2005). The following parameters were derived, where appropriate, from the individual plasma concentration versus time profiles:
• F % The absolute oral bioavailability calculated as [AUC0-t (oral)*Dose(iv)/AUC0-t (iv)*Dose (oral)]*100 based on mean values derived after oral and intravenous administration Consideration was given to the estimation of λz and corresponding t1/2 values. Three or more points are required within the terminal phase for λz and t1/2 to be estimated. The following additional variables were tabulated to aid identification of potentially unreliable estimates of t1/2 and AUC:
Pharmacokinetic parameters were reported as geometric mean except Tmax which was reported as the median. Geometric coefficient of variation was calculated as: […]
Actual sampling times were used for all calculations of pharmacokinetic parameters. Plasma concentrations that were below the limit of quantification were taken as zero for the pharmacokinetic analysis.

[1] = intravenous 10 mg/kg, male rats, individual animals, acetate, 10 mg/kg
[2] = male, Sprague Dawley, rat, plasma, iv, 10 mg/kg, male rats, individual animals, read-out: Sample Concentration in plasma
[3] = male, Sprague Dawley, rat, plasma, iv, 10 mg/kg, male rats, mean of 3, read-out: Mean Concentration in plasma
[4] = male, Sprague Dawley, rat, plasma, iv, 10 mg/kg, male rats, individual animals, LLOQ 2.50, read-out: Sample Concentration in plasma
[5] = male, Sprague Dawley, rat, plasma, iv, 10 mg/kg, male rats, mean, read-out: Mean Concentration in plasma

bioavailability (Sprague Dawley, rat, plasma, 10 mg/kg oral vs intravenous, male rats, from mean AUC0-t, read-out: Mean absolute oral bioavailability): 20.6%
t1/2 (intravenous 10 mg/kg, male rats, Arithmetic Mean): 3.15 h
t1/2 (intravenous 10 mg/kg, male rats, Geometric mean): 3.14 h
t1/2 (intravenous 10 mg/kg, male rats, Median): 3.26 h
t1/2 [1]: 3.26 h and 3.46 h and 2.74 h
Between-animal variability in systemic exposure, coefficient of variation (CV) of AUC0-t (intravenous 10 mg/kg, male rats): less than 30%
AUC0-∞ [1]: 1911 ng·h/mL and 2504 ng·h/mL
AUC(0-t) [1]: 1896 ng·h/mL and 2258 ng·h/mL
C0 [1]: 9463 ng/mL and 4924 ng/mL
CL [1]: 90.3 mL/min/kg and 68.25 mL/min/kg
MRT [1]: 2.53 h
Vss [1]: 13694 mL/kg and 13225 mL/kg
Systemic clearance (in words) (intravenous 10 mg/kg, rats): high
systemic plasma clearance (CL) compared with hepatic blood flow (in words) (intravenous 10 mg/kg, hepatic blood flow 3312 mL/h/kg): greater than hepatic blood flow
AUC(0-inf) (male, Sprague Dawley, rat, plasma, iv, 10 mg/kg, intravenous 10 mg/kg, male rats, Arithmetic Mean): 2500 ng·h/mL
AUC(0-t) (male, Sprague Dawley, rat, plasma, iv, 10 mg/kg, intravenous 10 mg/kg, male rats, Arithmetic Mean, read-out: AUC0-t): 2410 ng·h/mL
C0 (male, Sprague Dawley, rat, plasma, iv, 10 mg/kg, intravenous 10 mg/kg, male rats, Arithmetic Mean, read-out: C0): 6630 ng/mL
clearance (male, Sprague Dawley, rat, plasma, iv, 10 mg/kg, intravenous 10 mg/kg, male rats, Arithmetic Mean, read-out: CL (converted)): 71.3 mL/min/kg
MRT (male, Sprague Dawley, rat, plasma, iv, 10 mg/kg, intravenous 10 mg/kg, male rats, Arithmetic Mean, read-out: MRT): 3.24 h
Vd (male, Sprague Dawley, rat, plasma, iv, 10 mg/kg, intravenous 10 mg/kg, male rats, Arithmetic Mean, read-out: Vss): 13.4 L/kg
AUC(0-inf) (male, Sprague Dawley, rat, plasma, iv, 10 mg/kg, intravenous 10 mg/kg, male rats, Geometric mean): 2460 ng·h/mL
AUC(0-t) (male, Sprague Dawley, rat, plasma, iv, 10 mg/kg, intravenous 10 mg/kg, male rats, Geometric mean, read-out: AUC0-t): 2360 ng·h/mL
C0 (male, Sprague Dawley, rat, plasma, iv, 10 mg/kg, intravenous 10 mg/kg, male rats, Geometric mean, read-out: C0): 6360 ng/mL
clearance (male, Sprague Dawley, rat, plasma, iv, 10 mg/kg, intravenous 10 mg/kg, male rats, Geometric mean, read-out: CL (systemic plasma clearance) (converted)): 69.9 mL/min/kg
MRT (male, Sprague Dawley, rat, plasma, iv, 10 mg/kg, intravenous 10 mg/kg, male rats, Geometric mean, read-out: MRT): 3.19 h
Vd (male, Sprague Dawley, rat, plasma, iv, 10 mg/kg, intravenous 10 mg/kg, male rats, Geometric mean, read-out: Vss (mean apparent volume of distribution)): 13.4 L/kg
half-life (male, Sprague Dawley, rat, plasma, iv, 10 mg/kg, intravenous 10 mg/kg, male rats, Geometric mean, read-out: t1/2 (mean apparent terminal half-life) (converted)): 188 min
AUC(0-inf) (male, Sprague Dawley, rat, plasma, iv, 10 mg/kg, intravenous 10 mg/kg, male rats, Median): 2500 ng·h/mL
AUC(0-t) (male, Sprague Dawley, rat, plasma, iv, 10 mg/kg, intravenous 10 mg/kg, male rats, Median, read-out: AUC0-t): 2260 ng·h/mL
C0 (male, Sprague Dawley, rat, plasma, iv, 10 mg/kg, intravenous 10 mg/kg, male rats, Median, read-out: C0): 5520 ng/mL
clearance (male, Sprague Dawley, rat, plasma, iv, 10 mg/kg, intravenous 10 mg/kg, male rats, Median, read-out: CL (converted)): 68.2 mL/min/kg
MRT (male, Sprague Dawley, rat, plasma, iv, 10 mg/kg, intravenous 10 mg/kg, male rats, Median, read-out: MRT): 3.23 h
Vd (male, Sprague Dawley, rat, plasma, iv, 10 mg/kg, intravenous 10 mg/kg, male rats, Median, read-out: Vss): 13.2 L/kg
AUC(0-inf) (male, Sprague Dawley, rat, plasma, iv, 10 mg/kg, intravenous 10 mg/kg, male rats, individual animals): 3090 ng·h/mL
AUC(0-t) (male, Sprague Dawley, rat, plasma, iv, 10 mg/kg, intravenous 10 mg/kg, male rats, individual animals, read-out: AUC0-t): 3080 ng·h/mL
C0 (male, Sprague Dawley, rat, plasma, iv, 10 mg/kg, intravenous 10 mg/kg, male rats, individual animals, read-out: C0): 5520 ng/mL
clearance (male, Sprague Dawley, rat, plasma, iv, 10 mg/kg, intravenous 10 mg/kg, male rats, individual animals, read-out: CL (converted)): 55.4 mL/min/kg
MRT (male, Sprague Dawley, rat, plasma, iv, 10 mg/kg, intravenous 10 mg/kg, male rats, individual animals, read-out: MRT): 3.96 h
Vd (male, Sprague Dawley, rat, plasma, iv, 10 mg/kg, intravenous 10 mg/kg, male rats, individual animals, read-out: Vss): 13.2 L/kg
concentration at 0.05 h (male, Sprague Dawley, rat, plasma, iv, 10 mg/kg, male rats, 0.05 h (3 min), mean of 3, read-out: Mean Concentration in plasma): 3170 ng/mL
concentration at 0.05 h (male, Sprague Dawley, rat, plasma, iv, 10 mg/kg, male rats, 0.05 h, individual animals, read-out: Sample Concentration in plasma): 2530 ng/mL
concentration at 0.1 h [2]: 978 ng/mL
concentration at 0.1 h [3]: 1100 ng/mL
concentration at 0.25 h [2]: 481 ng/mL
concentration at 0.25 h [3]: 780 ng/mL
concentration at 0.75 h [2]: 404 ng/mL
concentration at 0.75 h [3]: 465 ng/mL
concentration at 1.5 h [2]: 274 ng/mL
concentration at 1.5 h [3]: 335 ng/mL
concentration at 2.5 h [2]: 240 ng/mL
concentration at 2.5 h [3]: 251 ng/mL
concentration at 4 h [2]: 179 ng/mL
concentration at 4 h [3]: 192 ng/mL
concentration at 6 h [2]: 103 ng/mL
concentration at 6 h [3]: 119 ng/mL
concentration at 8 h [4]: 62.3 ng/mL
concentration at 8 h [5]: 81.2 ng/mL
concentration at 24 h [4]: 3.08 ng/mL
concentration at 24 h [5]: 2.82 ng/mL
AUC(0-inf) (male, Sprague Dawley, rat, plasma, po, 10 mg/kg, oral 10 mg/kg, male rats, Arithmetic Mean): 838 ng·h/mL
AUC(0-t) (male, Sprague Dawley, rat, plasma, po, 10 mg/kg, oral 10 mg/kg, male rats, Arithmetic Mean, read-out: AUC0-t): 518 ng·h/mL
Cmax (male, Sprague Dawley, rat, plasma, po, 10 mg/kg, oral 10 mg/kg, male rats, Arithmetic Mean, read-out: Cmax): 110 ng/mL
MRT (male, Sprague Dawley, rat, plasma, po, 10 mg/kg, oral 10 mg/kg, male rats, Arithmetic Mean, read-out: MRT): 6.83 h
half-life (male, Sprague Dawley, rat, plasma, po, 10 mg/kg, oral 10 mg/kg, male rats, Arithmetic Mean, read-out: t1/2 (converted)): 198 min
Tmax (male, Sprague Dawley, rat, plasma, po, 10 mg/kg, oral 10 mg/kg, male rats, Arithmetic Mean, read-out: tmax): 4.67 h
SMILES: N=C(N)NN=CC=Cc1cccn1-c1ccccc1Br [Compound 3, [1-(2-bromophenyl)-1H-pyrrol-2-yl-allylideneamino]guanidinium acetate]
volume of distribution compared with total body water (in words) (intravenous 10 mg/kg, rats, total body water 668 mL/kg, acetate, 10 mg/kg): exceeded the total body water; also recorded: markedly greater than that of the total body water
